The subject of data set [1] is E. coli DH5αKT clones that spontaneously grew within the growth inhibition zone of a pALB571-pOp3-4/XALB2-3 exconjugant. The experiment in a line: Cross-resistance test: albicidin production assay with X. albilineans Xa23R1. The format is cell-based, Escherichia coli. The note with it: albicidin produced by X. albilineans Xa23R1; two clones as tester strains. The method, then:
Assay of albicidin production. Albicidin production was tested by a microbiological assay as described previously (Rott et al., 1996). Rifampicin and kanamycin exconjugants were spotted with sterile toothpicks (2-mm-diameter spots) onto plates of SPA medium (2% sucrose, 0.5% peptone, 1.5% agar) and incubated at 28° C. for 2-5 days. The plates were then overlaid with a mixture of E. coli DH5α (10^7 cells in 2 ml of distilled water) plus 2 ml of molten 1.5% (wt/vol) Noble agar (Difco) at ca. 65° C. and examined for inhibition zones after 24 h at 37 C.
Two E. coli DH5αKT clones, that spontaneously grew within the growth inhibition zone of a X. axonopodis pv. vesicatoria pALB571-pOp3-4/XALB2-3 exconjugant on SPA+tetracycline medium, were isolated and tested for resistance to albicidin. […] Comparison of chemical characteristics of the two molecules will, however, be necessary to confirm that the two molecules are identical.

Data set [2] concerns prokaryotic DNA replication. The note with it: Birch and Patil, 1985a; cited from earlier work.
The test system of data set [3] is chloroplast DNA replication. The note with it: Birch and Patil, 1983-1987; cited from earlier work.
The subject of another data set is proteases. To be noted: Birch and Patil, 1985a; cited from earlier work.
Data set [4] deals with gram-positive and gram-negative bacteria. To be noted: range of gram-positive and gram-negative bacteria; Birch and Patil, 1985a; cited from earlier work.

The values below come from US7510852B2, “Biosynthetic genes and host cells for the synthesis of polyketide antibiotics and method of use” (priority 2002, dated 2009).

On to albicidin, for which the “growth inhibition of clones resistant to the albicidin-like product” value in data set [1] is reported as “No growth inhibition”. In addition, the “effect on prokaryotic DNA replication” value in data set [2] is listed as “inhibits prokaryotic DNA replication”. Further, in data set [3], the “effect on chloroplast DNA replication” value is “inhibits chloroplast DNA replication”. Also, the sensitivity to proteases entry in the data set on proteases is “insensitive to proteases”. The bactericidal activity result in data set [4] was “bactericidal”.
